The results in this text go back to US20180344881A1, “FORMULATIONS FOR 2-HETEROARYL SUBSTITUTED BENZOFURANS” (Navidea Biopharmaceuticals, Inc., priority 2015, published 2018).

Series [1] can be described thus: [^18F]NAV4694 solution for injection: stability (radiochemical purity over time). It is filed as physicochemical. The method, then:
[^18F]NAV4694 solution for injection was tested over a range of radioactivity concentration values to determine the capacity and potential expiry at given concentrations.

Series [2] is described as follows: Filter type and excipient compatibility screen, retention of tracer on filter (FIG. 1). It is filed as physicochemical. The following applies: in PEG400 at levels of the excipient exceeding 10%; Sartorius Minisart 16596 HY 0.2 μm (FIG. 1). The method, then: In examples of experiments, tests were performed on prospective formulations with different filter types to screen for compatibility of the filter material. Both cellulose and polyethersulfone membranes retained unacceptable quantities of the drug substance, with the lowest retention values obtained using polyvinylidene difluoride (PVDF) and polytetrafluoroethylene (PTFE) derived membranes.
In this case, a solution of [^18F]NAV4694 in PEG400 appears to have low retention at levels of the excipient exceeding 10%.
In the ensuing experiments, each of the excipients were formulated at multiple concentration levels (within acceptable ranges) then treated with small quantities of [^18F]NAV4694 and finally filtered through the preferred filter units. The percent retention of drug substance was then directly calculated through measurement of the actual quantity of radioactivity retained on the filter and compared to that remaining in the filtrate.

Where [3] appears, read: radioactivity concentration below about 75 mCi/mL.
Setting [4] is: very high activity levels (>100 mCi/mL).

As to `CNc1ccc(-c2cc3cc(O)ccc3o2)c([18F])n1` [[^18F]NAV4694, 2-[2-(^18F)fluoro-6-(methylamino)-3-pyridinyl)-5-benzofuranol], in series [1] (setting [3]), the initial radiochemical purity entry is “high initial radiochemical purity” and the “time over which high radiochemical purity is retained” value was “retained over at least ten hours”. Besides, in series [1] (setting [4]), the decomposition result was “accelerated decomposition” and the initial radiochemical purity entry was “lower initial radiochemical purity”. In addition, the “retention of the tracer on the filter” value in series [2] was “low retention”.
